Source: US6509369B2, “Anti-inflammatory compounds” (Ortho-McNeil Pharmaceutical, Inc., priority 1997, dated 2003)

Test system: oxazolone-induced ear swelling (MOCH) in albino male CD-1 mice
Assay: mouse oxazolone-induced contact hypersensitization (MOCH) ear swelling
Format: in vivo
Parameters: % Inhibition MOCH: concentration or dose not given beside the values
Conditions: mouse, in vivo
Description: Several triphenylpropanamide compounds of this invention, having varying affinities for the human glucocorticoid receptor, were tested for topical antiinflammatory activity in mouse ear inflammation models. […] Compounds having receptor affinities closer to hydrocortisone were as nearly active as hydrocortisone in suppressing mouse oxazolone-induced contact hypersensitization (MOCH) and phorbol ester-induced ear edema. The in vivo studies of this example were conducted as follows.
In determining the MOCH using the compounds of this invention, albino male CD-1 mice, 7-9 weeks old were induced on the shaved abdomen with 50 μl of 3% oxazolone in acetone/corn oil (Day 0). On Day 5, a 20 μl volume of 2% oxazolone in acetone was applied to the dorsal left ear of the mouse . Compounds (made in ethanol/propylene glycol, 70:30) were applied to the left ear in 20 μl volume, one hour after oxazolone challenge. The right ear was not treated. The mice were sacrificed by carbon dioxide inhalation 24 hours after oxazolone challenge, the left and right ears were removed and a 7 mm biopsy was removed from each ear and weighed. The difference in biopsy weights between the right and left ears was calculated. Antiinflammatory effects of compounds were evident as an inhibition of the increase in ear weight.

In order of falling “% Inhibition MOCH” value:
1. O=C(Cc1ccccc1)NCC(c1ccc(C(F)(F)F)cc1)C(c1ccccc1)c1ccccc1 (stereo not drawn) [Compound 141]  66%
2. O=C(NCC(c1ccc2c(c1)OCO2)C(c1ccccc1)c1ccccc1)c1cccs1 (stereo not drawn) [Compound 116]  62%
3. O=C(Cc1ccc(F)cc1F)NCC(c1ccc2c(c1)OCO2)C(c1ccccc1)c1ccccc1 (stereo not drawn) [Compound 111]  60%
4. Cc1cccc(CC(=O)NCC(c2ccc(C(F)(F)F)cc2)C(c2ccccc2)c2ccccc2)c1 (stereo not drawn) [Compound 140]  57%
5. O=C(Cc1ccc(F)cc1F)NCC(c1ccc(C(F)(F)F)cc1)C(c1ccccc1)c1ccccc1 (stereo not drawn) [Compound 147]  55%
6. O=C(Cc1cc2cc(Cl)ccc2s1)NCC(c1ccc(C(F)(F)F)cc1)C(c1ccccc1)c1ccccc1 (stereo not drawn) [Compound 145]  54%
7. O=C(NCC(c1ccc2c(c1)OCO2)C(c1ccccc1)c1ccccc1)c1ccc(F)cc1 (stereo not drawn) [Compound 128]  54%
8. O=C(Cc1cc(C(F)(F)F)cc(C(F)(F)F)c1)NCC(c1ccc2c(c1)OCO2)C(c1ccccc1)c1ccccc1 (stereo not drawn) [Compound 104]  52%
9. CCCCOc1ccc(CC(=O)NCC(c2ccc3c(c2)OCO3)C(c2ccccc2)c2ccccc2)cc1 (stereo not drawn) [Compound 106]  52%
10. N#Cc1cccc(C(=O)NCC(c2ccc3c(c2)OCO3)C(c2ccccc2)c2ccccc2)c1 (stereo not drawn) [Compound 123]  51%
11. Cc1ccccc1C(=O)NCC(c1ccc2c(c1)OCO2)C(c1ccccc1)c1ccccc1 (stereo not drawn) [Compound 133]  46%
12. Cc1ccc(C(=O)NCC(c2ccc3c(c2)OCO3)C(c2ccccc2)c2ccccc2)cc1 (stereo not drawn) [Compound 126]  46%
13. O=C(NCC(c1ccc(C(F)(F)F)cc1)C(c1ccccc1)c1ccccc1)c1ccccc1Cl (stereo not drawn) [Compound 137]  45%
14. O=C(NCC(c1ccc(C(F)(F)F)cc1)C(c1ccccc1)c1ccccc1)c1ccc(Cl)cc1Cl (stereo not drawn) [Compound 139]  42%
15. COc1ccccc1CC(=O)NCC(c1ccc(C(F)(F)F)cc1)C(c1ccccc1)c1ccccc1 (stereo not drawn) [Compound 148]  42%
16. COc1cc(CC(=O)NCC(c2ccc(C(F)(F)F)cc2)C(c2ccccc2)c2ccccc2)cc(OC)c1 (stereo not drawn) [Compound 149]  42%
17. O=C(NCC(c1ccc2c(c1)OCO2)C(c1ccccc1)c1ccccc1)c1ccccc1Cl (stereo not drawn) [Compound 129]  41%
18. O=C(CSc1ccccc1)NCC(c1ccc2c(c1)OCO2)C(c1ccccc1)c1ccccc1 (stereo not drawn) [Compound 114]  41%
19. O=C(Cc1ccccc1Cl)NCC(c1ccc(C(F)(F)F)cc1)C(c1ccccc1)c1ccccc1 (stereo not drawn) [Compound 146]  39%
20. COc1ccccc1C(=O)NCC(c1ccc2c(c1)OCO2)C(c1ccccc1)c1ccccc1 (stereo not drawn) [Compound 118]  38%
21. O=C(NCC(c1ccc(C(F)(F)F)cc1)C(c1ccccc1)c1ccccc1)c1cccs1 (stereo not drawn) [Compound 136]  38%
22. COc1cc(CC(=O)NCC(c2ccc3c(c2)OCO3)C(c2ccccc2)c2ccccc2)cc(OC)c1 (stereo not drawn) [Compound 108]  38%
23. O=C(NCC(c1ccc2c(c1)OCO2)C(c1ccccc1)c1ccccc1)c1ccc(Cl)cc1 (stereo not drawn) [Compound 130]  37%
24. O=C(Cc1cccc(C(F)(F)F)c1)NCC(c1ccc2c(c1)OCO2)C(c1ccccc1)c1ccccc1 (stereo not drawn) [Compound 103]  37%
25. O=C(Cc1ccc(Cl)cc1Cl)NCC(c1ccc2c(c1)OCO2)C(c1ccccc1)c1ccccc1 (stereo not drawn) [Compound 112]  36%
26. O=C(CCc1ccccc1)NCC(c1ccc2c(c1)OCO2)C(c1ccccc1)c1ccccc1 (stereo not drawn) [Compound 124]  35%
27. O=C(Cc1cccs1)NCC(c1ccc2c(c1)OCO2)C(c1ccccc1)c1ccccc1 (stereo not drawn) [Compound 99]  35%
28. COc1cc(Cl)ccc1C(=O)NCC(c1ccc(C(F)(F)F)cc1)C(c1ccccc1)c1ccccc1 (stereo not drawn) [Compound 144]  33%
29. O=C(Cc1ccc(Cl)c(Cl)c1)NCC(c1ccc(C(F)(F)F)cc1)C(c1ccccc1)c1ccccc1 (stereo not drawn) [Compound 138]  33%
30. CC(C)(C)c1ccc(C(=O)NCC(c2ccc3c(c2)OCO3)C(c2ccccc2)c2ccccc2)cc1 (stereo not drawn) [Compound 125]  31%
31. O=C(Cc1cccs1)NCC(c1ccc(C(F)(F)F)cc1)C(c1ccccc1)c1ccccc1 (stereo not drawn) [Compound 135]  31%
32. O=C(Cc1ccc(Cl)c(Cl)c1)NCC(c1ccc2c(c1)OCO2)C(c1ccccc1)c1ccccc1 (stereo not drawn) [Compound 113]  31%
33. O=C(NCC(c1ccc2c(c1)OCO2)C(c1ccccc1)c1ccccc1)c1cc2ccccc2[nH]1 (stereo not drawn) [Compound 119]  31%
34. O=C(Cc1ccc(-c2ccccc2)cc1)NCC(c1ccc2c(c1)OCO2)C(c1ccccc1)c1ccccc1 (stereo not drawn) [Compound 134]  29%
35. O=C(NCC(c1ccc2c(c1)OCO2)C(c1ccccc1)c1ccccc1)c1ccsc1 (stereo not drawn) [Compound 115]  28%
36. O=C(NCC(c1ccc2c(c1)OCO2)C(c1ccccc1)c1ccccc1)c1ccccc1 (stereo not drawn) [Compound 117]  28%
37. O=C(NCC(c1ccc2c(c1)OCO2)C(c1ccccc1)c1ccccc1)c1cc(C(F)(F)F)cc(C(F)(F)F)c1 (stereo not drawn) [Compound 120]  27%
38. CSc1ccc(CC(=O)NCC(c2ccc(C(F)(F)F)cc2)C(c2ccccc2)c2ccccc2)cc1 (stereo not drawn) [Compound 143]  19%
39. O=C(NCC(c1ccc2c(c1)OCO2)C(c1ccccc1)c1ccccc1)c1cc(Cl)cc(Cl)c1 (stereo not drawn) [Compound 131]  18%
40. O=C(NCC(c1ccc2c(c1)OCO2)C(c1ccccc1)c1ccccc1)c1cccc([N+](=O)[O-])c1 (stereo not drawn) [Compound 121]  10%

Same assay, conditions: topical to mouse ear, 1 mg, one hour after oxazolone challenge, ear biopsy weight at 24 hours

With `O=C(Cc1ccc(Cl)cc1)NCC(c1ccc2c(c1)OCO2)C(c1ccccc1)c1ccccc1` (stereo not drawn) [Compound 98] the “Oxazolone Ear Swelling (MOCH) % inhibition vs. Vehicle at 1 mg” value was 85%.

Same assay, conditions: topical, mouse ear

With `O=C(Cc1ccc(Cl)cc1)NCC(c1ccc2c(c1)OCO2)C(c1ccccc1)c1ccccc1` (stereo not drawn) [Compound 98] the “topical antiinflammatory activity in the oxazolone model (in words)” value was “equiactive with hydrocortisone”.
